Laboratory results reported in patent US10294202B2, “Pyrrolidinones as herbicides” (FMC Corporation, priority 2013, dated 2019).

Key:
[1] = test system: field bindweed; test: Test E preemergence herbicide test; type: in vivo, Convolvulus arvensis; design: key: 0 = no effect, 100 = complete control
Source text: (§1) Seeds of plant species selected from corn (Zea mays), soybean (Glycine max), velvetleaf (Abutilon theophrasti), lambsquarters (Chenopodium album), wild poinsettia (Euphorbia heterophylla), pigweed, palmer (palmer pigweed, Amaranthus palmeri), waterhemp (common waterhemp, Amaranthus rudis), surinam grass (Brachiaria decumbens), crabgrass, large (large crabgrass, Digitaria sanguinalis), crabgrass, Brazil (Brazilian crabgrass, Digitaria horizontalis), panicum, fall (fall panicum, Panicum dichotomiflorum), foxtail, giant (giant foxtail, Setaria faberii), foxtail, green (green foxtail, Setaria viridis), goosegrass (Eleusine indica), johnsongrass (Sorghum halepense), ragweed (common ragweed, Ambrosia elatior), barnyardgrass (Echinochloa crus-galli), sandbur (southern sandbur, Cenchrus echinatus), arrowleaf […] rhombifolia), ryegrass, Italian (Italian ryegrass, Lolium multiflorum), dayflower, VA (Virginia dayflower, Commelina virginica), field bindweed (Convolvulus arvensis), morningglory (Ipomoea coccinea), nightshade (eastern black nightshade, Solanum ptycanthum), kochia (Kochia scoparia), nutsedge, yellow (yellow nutsedge, Cyperus esculentus), cocklebur (common cocklebur, Xanthium strumarium), smartweed (ladysthumb smartweed, Polygonum Persicaria) and beggarticks (hairy beggarticks, Bidens pilosa), were planted into a silt loam soil and treated preemergence with test chemicals formulated in a non-phytotoxic solvent mixture which included a surfactant. Treated plants and controls were maintained in a greenhouse for 21 days, after which time all species were compared to controls and visually evaluated. Plant response ratings, summarized in Table E, are based on a scale of 0 to 100 where 0 is no effect and 100 is complete control. A dash (-) response means no test result.

[2] = test system: nightshade; test: Test E preemergence herbicide test; type: in vivo, Solanum ptycanthum; design: key: 0 = no effect, 100 = complete control
Source text: as §1

[3] = test system: ragweed; test: Test E preemergence herbicide test; type: in vivo, Ambrosia elatior; design: key: 0 = no effect, 100 = complete control
Source text: as §1

[4] = test system: kochia; test: Test E preemergence herbicide test; type: in vivo, Kochia scoparia; design: key: 0 = no effect, 100 = complete control
Source text: as §1

[5] = test system: beggarticks; test: Test E preemergence herbicide test; type: in vivo, Bidens pilosa; design: key: 0 = no effect, 100 = complete control
Source text: as §1

[6] = test system: goosegrass; test: Test E preemergence herbicide test; type: in vivo, Eleusine indica; design: key: 0 = no effect, 100 = complete control
Source text: as §1

[7] = test system: foxtail, green; test: Test E preemergence herbicide test; type: in vivo, Setaria viridis; design: key: 0 = no effect, 100 = complete control
Source text: as §1

[8] = test system: lambsquarters; test: Test D pre-/postemergence herbicide test; type: in vivo, Chenopodium album; conditions: Postemergence, Lambsquarters, scale 0 to 100
Summary of the method: (§2)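 Visual ratings from 0 (no effect) to 100 (complete control) were made against untreated controls 7 to 21 days after treatment. Application was both preemergence, on silt loam soil, and postemergence, to 1- to 4-leaf plants 2-18 cm tall; compounds were formulated in a non-phytotoxic surfactant-containing solvent.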

[9] = test system: bluegrass; test: Test D pre-/postemergence herbicide test; type: in vivo, Poa annua; conditions: Postemergence, Bluegrass, scale 0 to 100
Summary of the method: as §2

[10] = test system: mustard, wild; test: Test D pre-/postemergence herbicide test; type: in vivo, Sinapis arvensis; conditions: Postemergence, Mustard, Wild, scale 0 to 100
Summary of the method: as §2

[11] = test system: speedwell; test: Test D pre-/postemergence herbicide test; type: in vivo, Veronica persica; conditions: Postemergence, Speedwell, scale 0 to 100
Source text: (§3) Seeds of plant species selected from bluegrass (annual bluegrass, Poa annua), blackgrass (Alopecurus myosuroides), canarygrass (littleseed canarygrass, Phalaris minor), chickweed (common chickweed, Stellaria media), galium (catchweed bedstraw, Galium aparine), bromegrass, downy (downy bromegrass, Bromus tectorum), field poppy (Papaver rhoeas), field violet (Viola arvensis), foxtail, green (green foxtail, Setaria viridis), deadnettle (henbit deadnettle, Lamium amplexicaule), ryegrass, Italian (Italian ryegrass, Lolium multiflorum), kochia (Kochia scoparia), lambsquarters (Chenopodium album), oilseed rape (Brassica napus), pigweed (Amaranthus retroflexus), chamomile (scentless chamomile, Matricaria inodora), Russian thistle (Salsola kali), speedwell (bird's-eye speedwell, Veronica persica), barley, spring (spring barley, Hordeum vulgare), wheat, spring (spring wheat, Triticum aestivum), buckwheat, wild (wild buckwheat, Polygonum convolvulus), mustard, wild (wild mustard, Sinapis arvensis), oat, wild (wild oat, Avena fatua), radish, wild (wild radish, Raphanus raphanistrum), […]), barley, winter (winter barley, Hordeum vulgare), and wheat, winter (winter wheat, Triticum aestivum) were planted into a silt loam soil and treated preemergence with test chemicals formulated in a non-phytotoxic solvent mixture which included a surfactant. At the same time, these species were planted in pots containing Redi-Earth® planting medium (Scotts Company, 14111 Scottslawn Road, Marysville, Ohio 43041) comprising spaghnum peat moss, vermiculite, wetting agent and starter nutrients and treated with postemergence applications of the test chemicals formulated in the same manner. Plants ranged in height from 2 to 18 cm (1- to 4-leaf stage). Treated plants and controls were maintained in a controlled growth environment for 7 to 21 days after which time all species were compared to controls and visually evaluated. Plant response ratings, summarized in Table D, are based on a scale of 0 to 100 where 0 is no effect and 100 is complete control. A dash (-) response means no test result.

[12] = test system: field poppy; test: Test D pre-/postemergence herbicide test; type: in vivo, Papaver rhoeas; conditions: Postemergence, Field Poppy, scale 0 to 100
Source text: as §3

SMILES: O=C1NCC(c2cccc(Br)c2)C1C(=O)Nc1ccccc1F (centres unmarked) [Compound 66]
- Plant response rating, Field Bindweed ([1]; 16 g ai/ha): 0
- Plant response rating, Field Bindweed ([1]; 31 g ai/ha): 0
- Plant response rating, Field Bindweed ([1]; 62 g ai/ha): 0
- Plant response rating, Field Bindweed ([1]; 125 g ai/ha): 0
- Plant response rating, Field Bindweed ([1]; 250 g ai/ha): 0
- Plant response rating, Nightshade ([2]; 16 g ai/ha): 0
- Plant response rating, Nightshade ([2]; 31 g ai/ha): 0
- Plant response rating, Nightshade ([2]; 62 g ai/ha): 0
- Plant response rating, Nightshade ([2]; 250 g ai/ha): 0
- Plant response rating, Ragweed ([3]; 16 g ai/ha): 0
- Plant response rating, Ragweed ([3]; 31 g ai/ha): 0
- Plant response rating, Ragweed ([3]; 62 g ai/ha): 0
- Plant response rating, Ragweed ([3]; 125 g ai/ha): 0
- Plant response rating, Ragweed ([3]; 250 g ai/ha): 20
- Plant response rating, Kochia ([4]; 16 g ai/ha): 0
- Plant response rating, Kochia ([4]; 31 g ai/ha): 0
- Plant response rating, Kochia ([4]; 62 g ai/ha): 0
- Plant response rating, Kochia ([4]; 125 g ai/ha): 0
- Plant response rating, Kochia ([4]; 250 g ai/ha): 0
- Plant response rating, Beggarticks ([5]; 16 g ai/ha): 0
- Plant response rating, Beggarticks ([5]; 31 g ai/ha): 0
- Plant response rating, Beggarticks ([5]; 62 g ai/ha): 0
- Plant response rating, Beggarticks ([5]; 125 g ai/ha): 0
- Plant response rating, Beggarticks ([5]; 250 g ai/ha): 0
- Plant response rating, Goosegrass ([6]; 16 g ai/ha): 0
- Plant response rating, Goosegrass ([6]; 31 g ai/ha): 0
- Plant response rating, Goosegrass ([6]; 62 g ai/ha): 0
- Plant response rating, Goosegrass ([6]; 125 g ai/ha): 0
- Plant response rating, Goosegrass ([6]; 250 g ai/ha): 0
- Plant response rating, Foxtail, Green ([7]; 16 g ai/ha): 0
- Plant response rating, Foxtail, Green ([7]; 31 g ai/ha): 0
- Plant response rating, Foxtail, Green ([7]; 62 g ai/ha): 0
- Plant response rating, Foxtail, Green ([7]; 125 g ai/ha): 35
- Plant response rating, Foxtail, Green ([7]; 250 g ai/ha): 60

SMILES: O=C1NCC(c2cc(F)c(F)c(F)c2)C1C(=O)Nc1ccccc1C(F)(F)F (racemic) [Compound 33]
- Plant response rating ([8]; 16 g ai/ha): 0
- Plant response rating ([8]; 31 g ai/ha): 0
- Plant response rating ([8]; 62 g ai/ha): 0
- Plant response rating ([8]; 125 g ai/ha): 0
- Plant response rating ([8]; 250 g ai/ha): 20
- Plant response rating ([9]; 16 g ai/ha): 0
- Plant response rating ([9]; 31 g ai/ha): 0
- Plant response rating ([9]; 62 g ai/ha): 0
- Plant response rating ([9]; 125 g ai/ha): 0
- Plant response rating ([9]; 250 g ai/ha): 0
- Plant response rating ([10]; 16 g ai/ha): 0
- Plant response rating ([10]; 31 g ai/ha): 0
- Plant response rating ([10]; 62 g ai/ha): 0
- Plant response rating ([10]; 125 g ai/ha): 0
- Plant response rating ([10]; 250 g ai/ha): 0
- Plant response rating ([11]; 16 g ai/ha): 0
- Plant response rating ([11]; 31 g ai/ha): 0
- Plant response rating ([11]; 62 g ai/ha): 0
- Plant response rating ([11]; 125 g ai/ha): 0
- Plant response rating ([11]; 250 g ai/ha): 10
- Plant response rating ([12]; 16 g ai/ha): 0
- Plant response rating ([12]; 31 g ai/ha): 0
- Plant response rating ([12]; 62 g ai/ha): 0
- Plant response rating ([12]; 125 g ai/ha): 0
- Plant response rating ([12]; 250 g ai/ha): 0
